Each structure is given as a SMILES string.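 Results reflect a 48-hour exposure of cells in 96-well plates to compound at five concentrations. The concentration for 50% growth inhibition is given as GI50. TGI: total growth inhibition.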 Where only a bound is given, the exact number is not on record here.

Some test systems named below: NCI-H226 lung; PC-3 prostate; HS 578T breast; HL-60(TB) leukemia; UO-31 renal; NCI-H23 lung; DU-145 prostate; MDA-MB-231 breast; SR leukemia; HCC-2998 colon.
Test in all cases: DTP human tumour cell line panel, 48 h

As to `CC(=O)Nc1ccc2c(c1)CN1C(=O)c3ccccc3C1=N2`, the GI50 with NCI-H226 lung, in the assay on PC-3 prostate, with HS 578T breast, in the assay on HL-60(TB) leukemia, in the assay on UO-31 renal and in the assay with NCI-H23 lung was more than 100 µM in each case. In addition, the GI50 in the assay on DU-145 prostate, in the assay on MDA-MB-231 breast, with SR leukemia and in the assay with HCC-2998 colon was more than 100 µM each time. In addition, the total growth inhibition concentration (TGI) in the assay on NCI-H226 lung, with PC-3 prostate, in the assay on HS 578T breast, in the assay on HL-60(TB) leukemia, in the assay on UO-31 renal and in the assay on NCI-H23 lung was more than 100 µM each time. The TGI in the assay on DU-145 prostate, with MDA-MB-231 breast, in the assay on SR leukemia and in the assay with HCC-2998 colon was more than 100 µM in each case.

Consider `COc1ccc(-c2conc2-c2ccccc2)cc1`, for which the GI50 with NCI-H226 lung is 2.42 µM; in the assay with PC-3 prostate it was 0.363 µM; in the assay with HS 578T breast, 0.267 µM; in the assay on HL-60(TB) leukemia, 0.288 µM; in the assay on UO-31 renal, 0.64 µM; in the assay with NCI-H23 lung, 0.549 µM. The GI50 is 0.416 µM with DU-145 prostate, 0.615 µM in the assay with MDA-MB-231 breast, 0.155 µM in the assay on SR leukemia and 0.534 µM in the assay on HCC-2998 colon. The TGI with NCI-H226 lung is more than 25.6 µM; in the assay on PC-3 prostate it was more than 100 µM; in the assay on HL-60(TB) leukemia, 1.41 µM; in the assay with UO-31 renal it was 40.9 µM; in the assay with NCI-H23 lung it was more than 100 µM; in the assay on MDA-MB-231 breast it was more than 27.5 µM. For the same compound, the TGI in the assay on SR leukemia is more than 100 µM; with HCC-2998 colon, 14.7 µM.

As to `COc1ccc(-c2cn(-c3cc(OC)c(OC)c(OC)c3)c(=O)n2-c2ccccc2)cc1`, the GI50 with NCI-H226 lung is more than 100 µM; in the assay on PC-3 prostate, more than 100 µM; in the assay on HS 578T breast, 53.2 µM; with HL-60(TB) leukemia it was 28.1 µM; with UO-31 renal, more than 100 µM; in the assay on NCI-H23 lung, more than 100 µM. In addition, the GI50 with DU-145 prostate is more than 100 µM; in the assay with MDA-MB-231 breast, more than 100 µM; with SR leukemia it was 50.1 µM; in the assay with HCC-2998 colon it was more than 100 µM. In addition, the TGI with NCI-H226 lung, in the assay on PC-3 prostate, with HS 578T breast, in the assay on HL-60(TB) leukemia, in the assay on UO-31 renal and with NCI-H23 lung was more than 100 µM in each case. The TGI in the assay on DU-145 prostate, in the assay with MDA-MB-231 breast, in the assay with SR leukemia and in the assay with HCC-2998 colon was more than 100 µM each time.

Regarding `CCOc1cccc(/C=N/NC(=O)Cc2ccc(Nc3ccnc(C(F)(F)F)c3)cc2)c1O`, the GI50 with NCI-H226 lung was 3.21 µM; with PC-3 prostate it was 1.88 µM; with HS 578T breast, 5.75 µM; in the assay with HL-60(TB) leukemia, 1.03 µM; in the assay with UO-31 renal, 0.986 µM; in the assay with NCI-H23 lung, 5.26 µM. Also, the GI50 with DU-145 prostate is 2.06 µM; in the assay with MDA-MB-231 breast, 3.15 µM; in the assay with SR leukemia it was 0.316 µM; in the assay with HCC-2998 colon, 6.78 µM. Moreover, the TGI with NCI-H226 lung was 34.9 µM; in the assay with PC-3 prostate, 21.6 µM; with HS 578T breast it was more than 100 µM; with HL-60(TB) leukemia, 4.22 µM; in the assay on UO-31 renal, 20.7 µM; with NCI-H23 lung, more than 100 µM. The concentration for total growth inhibition (TGI) in the assay with DU-145 prostate was more than 100 µM; in the assay with MDA-MB-231 breast, more than 100 µM; in the assay on SR leukemia it was 10.8 µM; in the assay with HCC-2998 colon, 93.4 µM.

As to `O=C(Nc1nc2ccc(F)cc2s1)c1cccnc1Nc1ccc(Cl)cc1Cl`, the GI50 with NCI-H226 lung is 2.72 µM; in the assay with PC-3 prostate, 2.21 µM; in the assay with HS 578T breast, 2.92 µM; in the assay on HL-60(TB) leukemia it was 2 µM; with UO-31 renal, 2.21 µM; in the assay on NCI-H23 lung, 2.28 µM. Besides, the GI50 with DU-145 prostate is 3.22 µM; with MDA-MB-231 breast, 3.11 µM; with SR leukemia it was 2.22 µM; in the assay on HCC-2998 colon, 4.09 µM. For the same compound, the TGI was 19.3 µM in the assay on NCI-H226 lung; 9.45 µM in the assay with PC-3 prostate; 19.7 µM with HS 578T breast; 5.7 µM with HL-60(TB) leukemia; more than 24.4 µM in the assay with UO-31 renal; 9.56 µM in the assay on NCI-H23 lung. Further, the TGI was determined as 13.4 µM in the assay on DU-145 prostate, 14.4 µM with MDA-MB-231 breast, 8.23 µM in the assay with SR leukemia and 18.3 µM in the assay with HCC-2998 colon.

Take `O=C1Nc2ccc(Br)cc2C1=Nc1ccc(Cl)cc1`: the TGI with NCI-H226 lung was 58.8 µM; with PC-3 prostate, more than 100 µM; in the assay on HS 578T breast, more than 100 µM; in the assay with HL-60(TB) leukemia, 39 µM; in the assay with UO-31 renal it was 28.9 µM; in the assay on NCI-H23 lung, more than 100 µM. The TGI is more than 100 µM in the assay on DU-145 prostate, 45.9 µM with MDA-MB-231 breast, more than 100 µM with SR leukemia and 39.7 µM in the assay on HCC-2998 colon.

For `CC(=O)c1c(Nc2ccc(F)c(F)c2F)[nH]c2c(F)cc(F)cc2c1=O`, the GI50 is 0.297 µM with NCI-H226 lung; 0.252 µM with PC-3 prostate; 0.293 µM in the assay with HS 578T breast; 0.372 µM in the assay with HL-60(TB) leukemia; 0.123 µM with UO-31 renal; 0.286 µM in the assay on NCI-H23 lung. For the same compound, the GI50 in the assay on DU-145 prostate is 0.403 µM; in the assay on MDA-MB-231 breast it was 0.285 µM; with SR leukemia it was 0.45 µM; in the assay on HCC-2998 colon, 0.378 µM. Besides, the TGI in the assay on NCI-H226 lung was 1.87 µM; in the assay on PC-3 prostate, 1.33 µM; in the assay on HS 578T breast, 8.69 µM; with UO-31 renal, 0.742 µM; in the assay on NCI-H23 lung, 4.41 µM; in the assay on DU-145 prostate, more than 100 µM. Moreover, the results for the TGI with MDA-MB-231 breast, in the assay with SR leukemia and with HCC-2998 colon were 1.77 µM, more than 45.9 µM and 13.6 µM, respectively.

As for `Cc1cc(C(=O)Nc2cc(Nc3ncccc3-c3ncnc4nc[nH]c34)ccc2F)cc(C(C)(C)C#N)c1`, the GI50 in the assay with NCI-H226 lung is 0.527 µM; in the assay with PC-3 prostate it was 7.13 µM; in the assay with HS 578T breast, 1.92 µM; with HL-60(TB) leukemia, 0.167 µM; in the assay on UO-31 renal, 0.239 µM; with NCI-H23 lung, 0.379 µM. Besides, the GI50 is 6.2 µM with DU-145 prostate, 0.123 µM with MDA-MB-231 breast, 1.99 µM with SR leukemia and 0.415 µM with HCC-2998 colon. Moreover, the TGI with NCI-H226 lung, with PC-3 prostate, in the assay with HS 578T breast, in the assay on HL-60(TB) leukemia, in the assay on UO-31 renal and in the assay with NCI-H23 lung was more than 100 µM in each case. Also, the TGI in the assay on DU-145 prostate is more than 100 µM; with MDA-MB-231 breast, 5.36 µM; in the assay on SR leukemia, 45.3 µM; in the assay on HCC-2998 colon it was more than 78.9 µM.

Values taken from PubChem BioAssay (NCI).
